{"source": "patent US20250049776A1", "about": "“AUTOPHAGY INDUCING COMPOUNDS AND USES THEREOF, IN PARTICULAR FOR A SYSTEMIC TREATMENT OF DISEASES AND CONDITIONS” (Samsara Therapeutics Inc., priority 2021, published 2025)", "tested_on": "dopaminergic Tyrosine hydroxylase (TH)-positive neurons injured with MPTP", "assay": "Cellular model of Parkinson's disease (MPTP/MPP+ injury of primary mesencephalic neurons)", "assay_type": "cell-based, Rat", "conditions": "concentrations of 500 μM and 1 μM", "description": "This model (run by Neuro-Sys SAS, France) is based on a primary culture of dopaminergic Tyrosine hydroxylase (TH)-positive neurons injured with the dopaminergic neurons-specific toxin (DA-toxin) 1-methyl-4-phenyl-1,2,3,6 tetrahydropyridine (MPTP, a prodrug of MPP*) (Dauer and Przedborski, 2003). Any substances reducing DA-toxin neurotoxicity may be useful as a new therapeutic agent for the treatment or prevention of PD.\nPrimary culture of mesencephalic neurons: Rat dopaminergic neurons were cultured as described by Visanji et al., 2008 and Callizot et al., 2019. Briefly, pregnant female rat (Wistar) of 15 days of gestation were killed using a deep anesthesia with CO2 chamber and a cervical dislocation. The midbrains obtained from 15-day-old rat embryos (Janvier, France) were dissected under a microscope. The embryonic midbrains will be removed and placed in ice-cold medium of Leibovitz (L15) containing 2% of Penicillin-Streptomycin (PS) and 1% of bovine serum albumin (BSA). The ventral portion of the mesencephalic flexure, a region of the developing brain rich in dopaminergic neurons, was used for the cell preparations.\nThe midbrains were dissociated by trypsinisation for 20 min at 37° C. (solution at a final concentration of 0.05% trypsin and 0.02% EDTA). The reaction was stopped by the addition of Dulbecco's modified Eagle's medium (DMEM) containing DNAase I grade II (0.5 mg/mL) and 10% of foetal calf serum (FCS). Cells were then mechanically dissociated by 3 passages through a 10 ml pipette. Cells were then centrifuged at 180×g for 10 min at +4° C. on a layer of BSA (3.5%) in L15 medium. The supernatant was discarded and the cell pellets re-suspended in a defined culture medium consisting of Neurobasal supplemented with B27 (2%), L-glutamine (2 mM) and 2% of PS solution and 10 ng/mL of Brain-derived neurotrophic factor (BDNF) and 1 ng/mL of Glial-Derived Neurotrophic Factor (GDNF). Viable cells were counted in a Neubauer cytometer using the trypan blue exclusion test. The cells were seeded at a density of 40,000 cells/well in 96 well-plates (pre-coated with poly-L-lysine) and maintained in a humidified incubator at 37° C. in 5% CO2/95% air atmosphere. Half of the medium was changed every 2 days with fresh medium. The wells of first and last lines and columns […] (to avoid any edge effect) and were be filled with sterile water.\nTest compounds and MPTP: • i) Pre-incubation. On day 6 of culture, the test compounds were dissolved in PBS or DMSO and incubated for 1 hour before the MPTP exposure. • ii) Injury. One hour after the application of test compound, MPTP was added to a final concentration of 4 μM, diluted in control medium still in presence of compounds/inhibitors for 48h. Test compounds were tested on one culture in 96-well plate (n=6 culture wells per condition).\nImmunostaining: TH and α-Synuclein. 48 Hours after intoxication, the cell culture supernatant was removed, and the cells were fixed by a solution of 4% paraformaldehyde in PBS, pH=7.3 for 20 min at room temperature. The cells were washed twice in PBS, and then permeabilized. Non-specific sites were blocked with a solution of PBS containing 0.1% of saponin and 1% FCS for 15 min at room temperature. The cultures were incubated with: (a) monoclonal anti-Tyrosine Hydroxylase (TH) antibody produced in mouse at dilution of 1/10000 in PBS containing 1% FCS, 0.1% saponin, for 2 hours at room temperature, and (b) polyclonal anti-alpha synuclein (α-synuclein) antibody produced in rabbit at dilution of 1/200 in PBS containing 1% FCS, 0.1% saponin, for 2 h at room temperature.\nAutomatic computer analysis. For each condition, 20 pictures (representing the whole well area) were automatically taken using ImageXpress® (Molecular Devices) at 10× magnification (20 pictures, for TH and α-synuclein into TH neurons) using the same acquisition parameters. From images, analyses was directly and automatically performed by MetaXpress® (Molecular Devices).", "note": "Where a name gives a salt, the structure may show the parent alone."}
{"smiles": "CCCN(C(=O)c1csc(-c2cnn(-c3ccccc3)c2)n1)[C@@H]1CCNC1", "note": "[Compound 171, (R)-2-(1-phenyl-1H-pyrazol-4-yl)-N-propyl-N-(pyrrolidin-3-yl)thiazole-4-carboxamide hydrochloride]", "values": [{"measurement": "decrease in α-syn area per dopaminergic TH positive neuron compared to MPP+ injury alone", "value": "> 18", "unit": "%"}, {"measurement": "increase in the length of the neurite network of dopaminergic TH positive neurons compared to the MPP+ injury alone", "value": "> 31", "unit": "%"}, {"measurement": "increase in the number of dopaminergic TH positive neurons compared to MPP+ injury alone", "value": "> 25", "unit": "%"}]}
